Measurements: ChEMBL document CHEMBL6153040, “Discovery of the salicylaldehyde-based compound DDO-02267 as a lysine-targeting covalent inhibitor of ALKBH5” (Eur J Med Chem, 2025)
Calls of active or inactive are those of the source. The calls are words filed in the database; no cut-off is given here.

Tests used:
RNA demethylase ALKBH5 [1] = biological target: T1, RNA demethylase ALKBH5 (Homo sapiens, UniProt Q6P6C2); assay: Inhibition of ALKBH5 (66 to 292 residues) (unknown origin) extracted from Escherichia coli BL21 (DE3) cells using m6A ssDNA as substrate measured after 1 hrs by fluorescence polarization assay
Target sequence in this assay (Q6P6C2 whole entry, the tested form may be a part): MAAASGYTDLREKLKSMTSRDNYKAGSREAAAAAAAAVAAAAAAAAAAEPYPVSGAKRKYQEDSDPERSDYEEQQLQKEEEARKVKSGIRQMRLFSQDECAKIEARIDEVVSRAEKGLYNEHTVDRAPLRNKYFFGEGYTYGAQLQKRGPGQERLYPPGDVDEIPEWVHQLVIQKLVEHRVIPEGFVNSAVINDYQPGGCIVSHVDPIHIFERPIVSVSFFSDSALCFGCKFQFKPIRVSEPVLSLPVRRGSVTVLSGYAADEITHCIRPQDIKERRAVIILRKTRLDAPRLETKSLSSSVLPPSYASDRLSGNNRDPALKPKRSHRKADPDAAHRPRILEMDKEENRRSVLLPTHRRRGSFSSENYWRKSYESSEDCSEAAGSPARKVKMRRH

RNA demethylase ALKBH5 [2] = biological target: T1, RNA demethylase ALKBH5; assay: Inhibition of ALKBH5 (66 to 292 residues) (unknown origin) extracted from Escherichia coli BL21 (DE3) cells using m6A ssDNA as substrate measured after 2 hrs by fluorescence polarization assay
Target sequence in this assay (Q6P6C2 whole entry, the tested form may be a part): as above

RNA demethylase ALKBH5 [3] = biological target: T1, RNA demethylase ALKBH5; assay: Binding affinity to ALKBH5 (66 to 292 residues) (unknown origin) extracted from Escherichia coli BL21 (DE3) cells assessed as dissociation constant by ITC analysis
Target sequence in this assay (Q6P6C2 whole entry, the tested form may be a part): as above

RNA demethylase ALKBH5 [4] = biological target: T1, RNA demethylase ALKBH5; assay: Binding affinity to ALKBH5 in human MOLM-13 cells assessed as protection of pronase-mediated protein degradation at 12.5 to 50 uM preincubated for 30 mins followed by protease addition and measured after 10 mins by DARTS method; type: cell-based; conditions: dose 12.5-50 µM, time 40.0 min
Target sequence in this assay (Q6P6C2 2-394 limits assumed): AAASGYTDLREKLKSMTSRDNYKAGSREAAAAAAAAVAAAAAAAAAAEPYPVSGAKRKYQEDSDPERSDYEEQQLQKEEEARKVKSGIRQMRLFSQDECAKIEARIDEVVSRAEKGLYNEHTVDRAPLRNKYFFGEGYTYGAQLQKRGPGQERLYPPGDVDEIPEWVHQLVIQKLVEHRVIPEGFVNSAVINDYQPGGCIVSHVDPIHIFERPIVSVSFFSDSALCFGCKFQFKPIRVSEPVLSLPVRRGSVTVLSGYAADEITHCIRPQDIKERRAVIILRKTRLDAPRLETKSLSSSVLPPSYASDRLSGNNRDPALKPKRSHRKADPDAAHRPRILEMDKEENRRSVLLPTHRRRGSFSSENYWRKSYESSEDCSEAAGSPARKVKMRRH

RNA demethylase ALKBH5 [5] = biological target: T1, RNA demethylase ALKBH5; assay: Covalent binding affinity to ALKBH5 (66 to 292 residues) (unknown origin) extracted from Escherichia coli BL21 (DE3) cells at Lys132 residue by HPLC-MS/MS analysis
Target sequence in this assay (Q6P6C2 2-394 limits assumed): as above

RNA demethylase ALKBH5 [6] = biological target: T1, RNA demethylase ALKBH5; assay: Induction of thermal stabilization of wild type ALKBH5 (66 to 292 residues) (unknown origin) extracted from Escherichia coli BL21 (DE3) cells assessed as melting temperature by thermal shift assay (reference value: 47.30 degreeC)
Target sequence in this assay (Q6P6C2 2-394 limits assumed): as above

[7] = test system: RNA demethylase ALKBH5 (Homo sapiens), Q6P6C2 [K132E]; assay: Inhibition of ALKBH5 K132E mutant (66 to 292 residues) (unknown origin) extracted from Escherichia coli BL21 (DE3) cells using m6A ssDNA as substrate at 0.5 to 100 uM incubated for 2 hrs by restriction enzyme digestion assay; conditions: dose 0.5-100 µM
RNA demethylase ALKBH5 [8] = biological target: T1, RNA demethylase ALKBH5; assay: Inhibition of ALKBH5 (66 to 292 residues) (unknown origin) extracted from Escherichia coli BL21 (DE3) cells using m6A ssDNA as substrate measured after 20 mins by fluorescence polarization assay
Target sequence in this assay (Q6P6C2 whole entry, the tested form may be a part): as the sequence (Q6P6C2 whole entry, the tested form may be a part) above

RNA demethylase ALKBH5 [9] = biological target: T1, RNA demethylase ALKBH5; assay: Inhibition of ALKBH5 (66 to 292 residues) (unknown origin) extracted from Escherichia coli BL21 (DE3) cells using m6A ssDNA as substrate measured after 40 mins by fluorescence polarization assay
Target sequence in this assay (Q6P6C2 whole entry, the tested form may be a part): as above

RNA demethylase ALKBH5 [10] = biological target: T1, RNA demethylase ALKBH5; assay: Inhibition of ALKBH5 (66 to 292 residues) (unknown origin) extracted from Escherichia coli BL21 (DE3) cells using m6A ssDNA as substrate measured after 240 mins by fluorescence polarization assay
Target sequence in this assay (Q6P6C2 whole entry, the tested form may be a part): as above

RNA demethylase ALKBH5 [11] = biological target: T1, RNA demethylase ALKBH5; assay: Binding affinity to ALKBH5 (66 to 292 residues) (unknown origin) extracted from Escherichia coli BL21 (DE3) cells assessed as dissociation constant incubated for 3 hrs by MST analysis
RNA demethylase ALKBH5 [12] = biological target: T1, RNA demethylase ALKBH5; assay: Time-dependent inhibition of ALKBH5 (66 to 292 residues) (unknown origin) demethylation activity extracted from Escherichia coli BL21 (DE3) cells using m6A ssDNA as substrate at 1 to 10 uM by TBE-PAGE based restriction enzyme digestion assay; conditions: dose 1-10 µM, time 0.5-2 hrs
Target sequence in this assay (Q6P6C2 2-394 limits assumed): as the sequence (Q6P6C2 2-394 limits assumed) above

RNA demethylase ALKBH5 [13] = biological target: T1, RNA demethylase ALKBH5; assay: Inhibition of ALKBH5 (66 to 292 residues) (unknown origin) extracted from Escherichia coli BL21 (DE3) cells using m6A ssDNA as substrate assessed as inactivation constant (Ki) measured after 6 hrs by fluorescence polarization assay
[14] = Selectivity ratio of IC50 for ALKBH3 (unknown origin) to IC50 for ALKBH5 (66 to 292 residues) (unknown origin) extracted from Escherichia coli BL21 (DE3) cells by fluorescence polarization assay
[15] = biological target: Alpha-ketoglutarate-dependent dioxygenase FTO (Homo sapiens, UniProt Q9C0B1); assay: Binding affinity to FTO (32 to 505 residues) (unknown origin) extracted from Escherichia coli BL21 (DE3) cells assessed as dissociation constant by ITC assay
[16] = biological target: T2, Alpha-ketoglutarate-dependent dioxygenase alkB homolog 3 (Homo sapiens) (UniProt Q96Q83); assay: Induction of thermal stabilization of ALKBH3 (unknown origin) assessed as change in melting temperature by thermal shift assay
T2 sequence (whole entry): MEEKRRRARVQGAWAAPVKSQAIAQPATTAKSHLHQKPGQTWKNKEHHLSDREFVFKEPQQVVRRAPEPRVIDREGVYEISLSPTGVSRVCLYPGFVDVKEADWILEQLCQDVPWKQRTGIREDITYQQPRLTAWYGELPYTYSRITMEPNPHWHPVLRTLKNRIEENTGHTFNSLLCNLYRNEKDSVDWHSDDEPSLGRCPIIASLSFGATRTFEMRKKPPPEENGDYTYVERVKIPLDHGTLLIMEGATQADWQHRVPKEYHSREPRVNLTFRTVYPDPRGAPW

RNA demethylase ALKBH5 [17] = biological target: T1, RNA demethylase ALKBH5; assay: Inhibition of ALKBH5 in human MV4-11 cells assessed as increase in m6A methylation levels by dot blot assay; type: cell-based
Target sequence in this assay (Q6P6C2 2-394 limits assumed): as the sequence (Q6P6C2 2-394 limits assumed) above

RNA demethylase ALKBH5 [18] = biological target: T1, RNA demethylase ALKBH5; assay: Inhibition of ALKBH5 in human MV4-11 cells assessed as increase in m6A methylation levels by m6A RNA Methylation Quantification Kit based colorimetric analysis; type: cell-based; conditions: dose 10-80 µM
Target sequence in this assay (Q6P6C2 2-394 limits assumed): as the sequence (Q6P6C2 2-394 limits assumed) above

MV4-11 = assay: Downregulation of AXL mRNA expression levels in human MV4-11 cells at 10 to 80 uM incubated for 72 hrs by qRT-PCR analysis; type: functional, cell-based; conditions: dose 10-80 µM
MOLM-13 [19] = assay: Induction of cell cycle arrest in human MOLM-13 cells assessed as accumulation of cells at G2/M phase at 40 uM incubated for 72 hrs by flow cytometry analysis (reference value: 17.53 %); type: functional
MOLM-13 [20] = assay: Induction of cell cycle arrest in human MOLM-13 cells assessed as accumulation of cells at G0/G1 phase at 80 uM incubated for 72 hrs by flow cytometry analysis (reference value: 65.53 %); type: functional
MOLM-13 [21] = assay: Induction of cell cycle arrest in human MOLM-13 cells assessed as accumulation of cells at S phase at 80 uM incubated for 72 hrs by flow cytometry analysis (reference value: 17.47 %); type: functional
MOLM-13 [22] = assay: Induction of apoptosis in human MOLM-13 cells assessed as viable cells at 40 uM incubated for 72 hrs by Annexin V FITC/PI staining based flow cytometry analysis (reference value: 89.65%); type: functional; conditions: read-out: Activity
MOLM-13 [23] = assay: Induction of apoptosis in human MOLM-13 cells assessed as necrotic cells at 40 uM incubated for 72 hrs by Annexin V FITC/PI staining based flow cytometry analysis (reference value: 1.75 %); type: functional
MOLM-13 [24] = assay: Induction of apoptosis in human MOLM-13 cells assessed as viable cells at 80 uM incubated for 72 hrs by Annexin V FITC/PI staining based flow cytometry analysis (reference value: 89.65%); type: functional; conditions: read-out: Activity
RNA demethylase ALKBH5 [25] = biological target: T1, RNA demethylase ALKBH5; assay: Inhibition of ALKBH5 (66 to 292 residues) (unknown origin) extracted from Escherichia coli BL21 (DE3) cells using m6A ssDNA as substrate incubated for 2 hrs by TBE-PAGE based restriction enzyme digestion assay
RNA demethylase ALKBH5 [26] = biological target: T1, RNA demethylase ALKBH5; assay: Potency index, ratio of 2-(((2-nitrophenyl)sulfonyl)carbamoyl)isonicotinic acid IC50 to test compound IC50 for inhibition of ALKBH5 (66 to 292 residues) (unknown origin) extracted from Escherichia coli BL21 (DE3) cells using m6A ssDNA as substrate measured after 1 hrs by fluorescence polarization assay

RNA demethylase ALKBH5 (Homo sapiens), Q6P6C2 [K132E], sequence (Q6P6C2 whole entry K132E, the tested form may be a part): as the sequence (Q6P6C2 whole entry, the tested form may be a part) above, with K132E counted along it
Alpha-ketoglutarate-dependent dioxygenase FTO, sequence (Q9C0B1 whole entry, the tested form may be a part): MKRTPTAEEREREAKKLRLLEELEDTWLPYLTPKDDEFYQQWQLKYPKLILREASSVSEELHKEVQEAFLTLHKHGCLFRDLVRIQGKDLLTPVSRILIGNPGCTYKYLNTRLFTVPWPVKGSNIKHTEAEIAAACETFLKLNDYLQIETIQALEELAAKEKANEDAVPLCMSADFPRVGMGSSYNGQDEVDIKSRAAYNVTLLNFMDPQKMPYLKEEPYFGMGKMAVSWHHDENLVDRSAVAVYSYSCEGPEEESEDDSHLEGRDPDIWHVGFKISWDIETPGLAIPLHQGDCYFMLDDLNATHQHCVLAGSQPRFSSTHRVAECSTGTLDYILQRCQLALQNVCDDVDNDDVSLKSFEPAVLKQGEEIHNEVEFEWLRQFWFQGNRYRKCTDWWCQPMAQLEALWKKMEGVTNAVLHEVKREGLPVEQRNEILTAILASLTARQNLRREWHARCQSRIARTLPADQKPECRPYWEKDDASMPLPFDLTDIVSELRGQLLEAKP

## O=Cc1cc(S(=O)(=O)NC(=O)c2cc(C(=O)O)ccn2)c2ccccc2c1O
RNA demethylase ALKBH5 [1]
  IC50: 480 nM
RNA demethylase ALKBH5 [2]
  IC50: 350 nM
RNA demethylase ALKBH5 [3]
  Kd: 2800 nM
RNA demethylase ALKBH5 [4]
  Activity: Active
RNA demethylase ALKBH5 [5]
  Activity: Active
RNA demethylase ALKBH5 [6]
  Tm: 49.9 °C
[7]
  inhibition: inactive
RNA demethylase ALKBH5 [8]
  IC50: 780 nM
RNA demethylase ALKBH5 [9]
  IC50: 580 nM
RNA demethylase ALKBH5 [10]
  IC50: 260 nM
RNA demethylase ALKBH5 [11]
  Kd: 1030 nM
RNA demethylase ALKBH5 [12]
  TDI: Active
RNA demethylase ALKBH5 [13]
  Ki: 410 nM
[14]
  Ratio IC50: 20
[15]
  Kd: 27600 nM
[16]
  ΔTm: < 1 °C
RNA demethylase ALKBH5 [17]
  inhibition: Active
RNA demethylase ALKBH5 [18]
  inhibition: Dose-dependent-effect
MV4-11
  Activity: Active
MOLM-13 [19]
  Activity: 26.1%
MOLM-13 [20]
  Activity: 73.67%
MOLM-13 [21]
  Activity: 4.11%
MOLM-13 [22]
  viability at 40 µM: 83%
MOLM-13 [23]
  Activity: 2.03%
MOLM-13 [24]
  viability at 80 µM: 77.6%
RNA demethylase ALKBH5 [25]
  IC50: 2530 nM
RNA demethylase ALKBH5 [26]
  Ratio IC50: 287
